Measured values from the supplement of paper PMC3493320.
Where “and” joins values, the source holds several entries; their conditions need not be identical. Identical values can stand only once.

Key:
NCI-H295R [1] = assay: maximal response (efficacy) relative to DMSO (0%) and doxorubicin (-100%); higher = less growth inhibition; conditions: 48 h
NCI-H295R [2] = assay: IC50 (antiproliferative, ATP content); conditions: 48 h

SMILES	IC50 (NCI-H295R [2])	maximal response (NCI-H295R [1])
C=C1CC[C@H](O)C/C1=C/C=C1\CCC[C@]2(C)[C@@H]([C@H](C)CCCC(C)(C)O)CC[C@@H]12	26.6 µM	-166%
CO[C@H](C(=O)[C@@H](O)[C@@H](C)O)[C@@H]1Cc2cc3cc(O[C@H]4C[C@@H](O[C@H]5C[C@@H](O)[C@H](O)[C@@H](C)O5)[C@@H](O)[C@@H](C)O4)c(C)c(O)c3c(O)c2C(=O)[C@H]1O[C@H]1C[C@@H](O[C@H]2C[C@@H](O[C@H]3C[C@](C)(O)[C@H](O)[C@@H](C)O3)[C@H](O)[C@@H](C)O2)[C@H](O)[C@@H](C)O1	0.944 µM	-118%
O[C@]([C@@]([H])2CC3)(CC[C@@H]4[C@@](CO5)=CC5=O)[C@]4(C)C[C@@H](O)[C@]2([H])[C@]1(CO)[C@@]3(O)C[C@@H](O[C@H]6[C@H](O)[C@H](O)[C@@H](O)[C@H](C)O6)C[C@H]1O	0.0841 µM and 0.106 µM	-111% and -116%
C[CH2][Hg][S]c1ccccc1C(=O)[O-].[Na+]	2.66 µM	-124%
OB(O)[O][Hg][c]1ccccc1	3.76 µM	-130%
O[C@H]2C[C@@H](O[C@H](C)[C@H]2O[C@@H]3O[C@H](C)[C@@H](O[C@H]4C[C@H](O)[C@H](OC)[C@@H](C)O4)[C@@H](O)C3)O[C@H]1CC[C@@]5(C)[C@@](CC[C@]6([H])[C@@]([H])5C[C@@H](O)[C@@]7(C)[C@@](O)6CC[C@@H]7[C@@](CO8)=CC8=O)([H])C1	0.237 µM	-111%
CCCCCCCCCCCCCCCCOCCOCCOCCOCCOCCOCCOCCOCCOCCOCCOCCOCCOCCOCCOCCOCCOCCOCCOCCOCCO	13.3 µM	-124%
CC[C@@H](C(=O)O)[C@@H]1O[C@@H]([C@@H](C)[C@H](O)[C@H](C)C(=O)[C@H](CC)[C@H]2O[C@]3(C=C[C@@H](O)[C@]4(CC[C@@](C)([C@H]5CC[C@](O)(CC)[C@H](C)O5)O4)O3)[C@H](C)C[C@@H]2C)[C@@H](C)C[C@@H]1C	5.31 µM	-140%
O=S(=O)([O-])c1cc(O)c2c(N=Nc3ccc(Nc4ccccc4)c4c(S(=O)(=O)[O-])cccc34)cc(S(=O)(=O)[O-])cc2c1.[Na+].[Na+].[Na+]	11.9 µM	-73.8%
O=C([C@](C(C=C4OC)=C(C=C4OC)OC3)([H])[C@]3([H])O2)C(C=C5)=C2C1=C5O[C@@H]([C@@](C)=C)C1	0.75 µM	-69.2%
O=c1oc2ccccc2c(O)c1C(CC(O)c1ccc(-c2ccc(Br)cc2)cc1)c1ccccc1 (stereo unspecified)	9.44 µM	-115%
CCCCCCCCCCCCOCCOCCOCCOCCOCCOCCOCCOCCOCCO	21.1 µM	-147%
COP(=S)(OC)Oc1ccc(Sc2ccc(OP(=S)(OC)OC)cc2)cc1	21.1 µM	-96.4%
Cc1cc2c(C(C)C)c(O)c(O)c(C=O)c2c(O)c1-c1c(C)cc2c(C(C)C)c(O)c(O)c(C=O)c2c1O	10.6 µM	-127%
C=C1/C(=C\C=C2/CCC[C@]3(C)[C@@H]([C@H](C)CCCC(C)(C)O)CC[C@@H]23)C[C@@H](O)C[C@@H]1O	18.8 µM	-140%
CC[C@]2(O)CC[C@H]3[C@@H]4CC\C1=C\CCC[C@@H]1[C@H]4CC[C@]23C	16.8 µM	-60.8%
CC(C)(C)c1cc(O)ccc1O	16.8 µM	-139%
COc1cc(-c2ccc(-[n+]3nc(-c4ccccc4)nn3-c3ccc([N+](=O)[O-])cc3)c(OC)c2)ccc1-[n+]1nc(-c2ccccc2)nn1-c1ccc([N+](=O)[O-])cc1.[Cl-].[Cl-]	10.6 µM	-132%
[K+].[K+].[O]=[Cr](=[O])([O-])[O][Cr](=[O])(=[O])[O-]	11.9 µM	-166%

Second part, led by results:

IC50 (NCI-H295R [2])	SMILES	maximal response (NCI-H295R [1])
8.41 µM	C=CCNC1=C2C[C@@H](C)C[C@H](OC)[C@H](O)[C@@H](C)/C=C(\C)[C@H](OC(N)=O)[C@@H](OC)/C=C\C=C(/C)C(=O)NC(=CC1=O)C2=O	-105%
29.9 µM	CCOC(=O)N1CCC(=C2c3ccc(Cl)cc3CCc3cccnc32)CC1	-151%
10.6 µM	COc1cccc2c1C(=O)c1c(O)c3c(c(O)c1C2=O)C[C@@](O)(C(C)=O)C[C@@H]3O[C@H]1C[C@H](N)[C@H](O)[C@H](C)O1	-126%
0.299 µM and 0.335 µM	CC(C)C[C@H](NC(=O)[C@H](Cc1ccccc1)NC(=O)c1cnccn1)B(O)O	-74.3% and -77.1%
16.8 µM	CC(C)(C)c1ccc(C(=O)CCCN2CCC(OC(c3ccccc3)c3ccccc3)CC2)cc1	-139%
2.37 µM	COc1cc(NCCCC(C)N)c2ncccc2c1 (stereo unspecified)	-124%
11.9 µM	[Cl-].C/[N+](C)=C1\C=C/C(C=C1)=C(\c2ccc(cc2)N(C)C)c3ccc(cc3)N(C)C	-130%
0.531 µM	O=C(Nc1ccc([N+](=O)[O-])cc1Cl)c1cc(Cl)ccc1O	-94.3%
16.8 µM	CCN(CC)CCCN(c1ccccc1)C1Cc2ccccc2C1.Cl	-138%
18.8 µM	O=C3O[C@@H]2[C@@H]1O[C@@](C)1CC/C=C(C)/CC[C@H]2[C@@]3=C	-138%
4.53 µM	C/C=C(/C(=C/C)c1ccc(O)cc1)c1ccc(O)cc1	-68.5%
21.1 µM	CN(C)C3=CC=C(C=C3)/C(C2=CC=C(N(C)C)C=C2)=C(C=C1)/C=C/C1=N/C	-167%
21.1 µM	COc1cc(C(=O)NS(=O)(=O)c2ccccc2C)ccc1Cc1cn(C)c2ccc(NC(=O)OC3CCCC3)cc12	-134%
8.41 µM	CC(C)C[C@@H]1NC(=O)[C@H](CCCN)NC(=O)[C@H](C(C)C)NC(=O)[C@@H]2CCCN2C(=O)[C@@H](Cc2ccccc2)NC(=O)[C@H](CC(C)C)NC(=O)[C@H](CCCN)NC(=O)[C@H](C(C)C)NC(=O)[C@@H]2CCCN2C(=O)[C@@H](Cc2ccccc2)NC1=O	-121%
0.944 µM	O=[C@@]([C@@H]4C3=CC(C(C1=CC=CC(O)=C12)=O)=C(C(O)=C3[C@@H](O[C@@H]7O[C@H]([C@H]([C@@H](N(C)C)C7)O[C@H](O6)C[C@@H]([C@@H]([C@@H]6C)O[C@H](O5)CCC([C@@H]5C)=O)O)C)C[C@](CC)4O)C2=O)OC.Cl	-122%
8.41 µM	Oc1c(I)cc(Cl)c2cccnc12	-64.3%
18.8 µM	O=c1c(-c2ccccc2)c1-c1ccccc1	-142%
21.1 µM	COc1cc2c(cc1OC)-c1c/c(=N\c3c(C)cc(C)cc3C)n(C)c(=O)n1CC2.Cl	-149%
5.31 µM	Oc1c(I)cc(I)c2cccnc12	-82.7%
